From patent publication US12024513B2, “NLRP3 modulators” (INNATE TUMOR IMMUNITY, INC., priority 2018, dated 2024)

The compounds below were run against T1, human TLR7 (Homo sapiens, UniProt Q9NYK1) (assay: In vitro human TLR7 reporter assay (HEK-Blue, NF-kB/AP1-inducible SEAP)). Settings: HEK-Blue cells co-expressing TLR7 and SEAP reporter, 18 h; read-out: TLR7 agonist EC50.
T1 construct: host or cells: human HEK-Blue cells
T1 sequence (Q9NYK1 27-1049): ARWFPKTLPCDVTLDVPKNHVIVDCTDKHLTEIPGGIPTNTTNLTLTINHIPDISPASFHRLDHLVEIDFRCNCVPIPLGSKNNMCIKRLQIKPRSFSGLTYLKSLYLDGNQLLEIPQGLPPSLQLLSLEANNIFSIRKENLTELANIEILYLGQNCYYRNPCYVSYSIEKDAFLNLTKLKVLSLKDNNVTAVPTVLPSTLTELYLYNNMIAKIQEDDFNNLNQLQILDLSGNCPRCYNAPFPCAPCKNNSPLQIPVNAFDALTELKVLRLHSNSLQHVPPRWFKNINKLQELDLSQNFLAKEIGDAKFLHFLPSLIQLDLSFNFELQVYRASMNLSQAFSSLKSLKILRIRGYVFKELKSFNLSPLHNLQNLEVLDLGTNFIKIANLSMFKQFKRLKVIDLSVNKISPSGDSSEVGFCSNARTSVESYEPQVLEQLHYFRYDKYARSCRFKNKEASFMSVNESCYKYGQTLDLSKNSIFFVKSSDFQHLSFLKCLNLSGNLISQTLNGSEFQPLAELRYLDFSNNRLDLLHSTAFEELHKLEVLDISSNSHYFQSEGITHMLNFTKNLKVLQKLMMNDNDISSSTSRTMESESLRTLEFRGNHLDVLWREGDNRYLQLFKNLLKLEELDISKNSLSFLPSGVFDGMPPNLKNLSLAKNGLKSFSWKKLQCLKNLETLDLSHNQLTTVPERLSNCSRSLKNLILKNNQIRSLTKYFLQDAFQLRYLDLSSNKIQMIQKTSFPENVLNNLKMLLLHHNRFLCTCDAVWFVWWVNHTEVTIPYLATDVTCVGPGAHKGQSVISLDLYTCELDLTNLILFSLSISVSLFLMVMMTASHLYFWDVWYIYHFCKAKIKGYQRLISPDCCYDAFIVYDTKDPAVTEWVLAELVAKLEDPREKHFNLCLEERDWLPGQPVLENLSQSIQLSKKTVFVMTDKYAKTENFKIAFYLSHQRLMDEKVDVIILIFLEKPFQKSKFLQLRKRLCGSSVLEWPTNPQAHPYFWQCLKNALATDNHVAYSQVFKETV
Format: cell-based
Description: (§1) In Vitro Human TLR7 and TLR8 Binding Reporter Assays
(§2) Logarithmically-growing human HEK-Blue cells co-expressing a TLR7 or TLR8 gene and a NF-kB/AP1-inducible SEAP (secreted embryonic alkaline phosphatase; Invivogen, San Diego, CA) reporter gene are added to individual wells of a 384-well plate (15,000 cells per 20 μL per well) and maintained for 24 h at 37° C. 5% CO2. Test compounds or DMSO are distributed to separate wells the next day using acoustic liquid handling technology (100 nL per well) and cells are subsequently incubated for 18 h at 37° C. 5% CO2. Cellular SEAP production is measured using an Envision plate reader instrument thirty minutes after adding freshly-made Quanti-Blue reagent (prepared by following manufacturer instructions; Invivogen, San Diego, CA) to the HEK-Blue TLR Nf-kB-SEAP cell reactions. All EC50 values (half-maximal effective concentration) are determined using proprietary data analysis software. Normalized EC50 value=absolute value determined by setting 100% Ymax using a reference standard RLU (relative light unit) values from cells treated with 50 μM of the reference standard.

| EC50 [nM] | Structure (SMILES) |
| --- | --- |
| 20000 to 100000 | Nc1nc2cc(-c3cc[nH]n3)ccc2c2c1nc(CNC(=O)C1CCCCO1)n2CC(F)F (centres unmarked) [Example 19] |

These compounds were tested against T2, human TLR8 (Homo sapiens, UniProt Q9NR97) (assay: In vitro human TLR8 reporter assay (HEK-Blue, NF-kB/AP1-inducible SEAP)). Settings: HEK-Blue cells co-expressing TLR8 and SEAP reporter, 18 h; read-out: TLR8 agonist EC50.
T2 construct: host or cells: human HEK-Blue cells
T2 sequence (Q9NR97 27-1041): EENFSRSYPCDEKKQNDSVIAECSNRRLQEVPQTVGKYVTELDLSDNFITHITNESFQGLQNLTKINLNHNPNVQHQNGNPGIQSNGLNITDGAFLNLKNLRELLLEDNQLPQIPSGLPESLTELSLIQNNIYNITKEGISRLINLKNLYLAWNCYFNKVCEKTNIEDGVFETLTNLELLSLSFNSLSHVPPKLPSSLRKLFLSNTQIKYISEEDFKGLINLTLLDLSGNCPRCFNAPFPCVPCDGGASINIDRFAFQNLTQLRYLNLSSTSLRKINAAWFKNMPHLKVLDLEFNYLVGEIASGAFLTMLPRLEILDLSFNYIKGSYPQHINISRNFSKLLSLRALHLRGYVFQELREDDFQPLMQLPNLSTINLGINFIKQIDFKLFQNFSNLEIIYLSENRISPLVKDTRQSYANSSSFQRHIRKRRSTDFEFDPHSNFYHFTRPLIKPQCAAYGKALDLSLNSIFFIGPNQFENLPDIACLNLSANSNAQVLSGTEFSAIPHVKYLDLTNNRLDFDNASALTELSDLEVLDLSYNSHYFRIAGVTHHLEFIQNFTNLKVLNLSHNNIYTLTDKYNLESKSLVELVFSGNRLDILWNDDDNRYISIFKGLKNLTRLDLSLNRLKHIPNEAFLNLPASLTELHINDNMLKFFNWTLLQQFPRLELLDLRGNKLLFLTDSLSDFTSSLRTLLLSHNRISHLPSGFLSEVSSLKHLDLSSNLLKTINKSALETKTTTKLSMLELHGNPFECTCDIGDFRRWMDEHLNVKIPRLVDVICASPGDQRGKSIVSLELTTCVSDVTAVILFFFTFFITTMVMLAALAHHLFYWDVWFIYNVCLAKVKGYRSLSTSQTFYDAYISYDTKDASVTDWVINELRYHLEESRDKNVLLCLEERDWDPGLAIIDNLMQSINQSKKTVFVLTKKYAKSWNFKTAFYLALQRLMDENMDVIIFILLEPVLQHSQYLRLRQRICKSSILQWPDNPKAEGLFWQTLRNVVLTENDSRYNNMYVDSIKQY
Format: cell-based
Description: as §1, §2

| EC50 [nM] | Structure (SMILES) |
| --- | --- |
| 20000 to 100000 | Nc1nc2cc(-c3cc[nH]n3)ccc2c2c1nc(CNC(=O)C1CCCCO1)n2CC(F)F (centres unmarked) [Example 19] |
| 20000 to 100000 | CC(C)n1c(CNC(=O)c2ccccn2)nc2c(N)nc3cc(-c4cc[nH]n4)ccc3c21 [Example 14] |

The compounds below were run against T3, NLRP3 (Homo sapiens, UniProt Q96P20) (assay: Measurement of IL-1β production in PMA-differentiated THP-1 cells (NLRP3 hIL1B)). Settings: one or more of the described procedures.
T3 construct: host or cells: THP-1 cells, PMA-differentiated
Format: cell-based
Description: Measurement of IL-1β Production in PMA-Differentiated THP-1 Cells
THP-1 cells were purchased from the American Type Culture Collection and sub-cultured according to instructions from the supplier. Prior to experiments, cells were cultured in RPMI 1640 containing 10% heat inactivated FBS, penicillin (100 units/ml) and streptomycin (100 μg/ml), and maintained in log phase prior to experimental setup. Prior to the experiment THP-1 were treated with PMA (Phorbol 12-myristate 13-acetate) (10 μg/ml) for 24 hours. The day of the experiment the media was removed and attaching cells were treated with trypsin for 2 minutes, cells were then collected, washed with PBS (phosphate buffer saline), spin down, resuspended in 2% heat inactivated FBS with RPMI at a concentration of 1×10^6 cells/ml, and 100 μl was plated in a 96 well plate. Compounds were dissolved in dimethyl sulfoxide (DMSO) and added to the culture medium to achieve desired concentration (e.g. 100, 30, 10, 3, 1, 0.3 or 0.1 μM). Cells were incubated with compounds for 4 hours. Cell free supernatant was collected and the production of IL-1β was evaluated by ELISA. A vehicle only control was run concurrently with each experiment. Final DMSO concentration was 1%.
Measurement of IL-1β Production in PMA-Differentiated THP-1 Cells (Alternative Procedure)
THP-1 cells were purchased from the American Type Culture Collection and sub-cultured according to instructions from the supplier. Prior to experiments, cells were cultured in RPMI 1640 containing 10% heat inactivated FBS, penicillin (100 units/ml), streptomycin (100 μg/ml), HEPES (10 mM) and sodium pyruvate (1 mM) and maintained in log phase prior to experimental setup. Prior to the experiment, THP-1 cells were treated with PMA (Phorbol 12-myristate 13-acetate) (20 μg/ml) overnight. The day of the experiment, the media was removed and attached cells were treated with trypsin for 2 minutes, cells were then collected, washed with PBS (phosphate buffer saline), pelleted by centrifugation and resuspended in 2% heat inactivated FBS with RPMI at a concentration of 50,000 cells/well in a 384 well plate. Cell free supernatant was collected and the production of IL-1β was evaluated by ELISA. Compounds were dissolved in dimethyl sulfoxide (DMSO) and added to the culture medium to achieve desired concentration (e.g. 100, 30, 10, 3, 1, 0.3 or 0.1 μM). Cells were incubated with compounds for 2 hours. A vehicle only control was run concurrently with each experiment. Final DMSO concentration was 1%.
Measurement of IL-1β Production—hTRF Protocol (Second Alternative Procedure)
Serial dilutions of compounds in DMSO were added to low volume 384 well plates at 100 nl/well using an ECHO 550 acoustic dispenser (Labcyte) to achieve final starting concentration of 10 μM in assay.
THP-1 cells in RPMI (Gibco, 11875) media with 10% FBS at a density of 1×10^6 cell/ml in a T175 flask were treated with a final concentration of phorbol 12-myristate 13-acetate (PMA) (Sigma, PI585) of 50 ng/ml overnight at 37° C. at 5% CO2 for differentiation. Cells were harvested the next day after rinsing well wth dPBS using 0.5% trypsin. A cell solution was prepared of 1×10^6 cells/ml for 50,000 cells in 50 μl/well in RPMI media with 2% FBS. Cells were plated using a multichannel pipette onto the compound dilutions in Greiner, 384 well, black clear bottom tissue culture treated plates (781090). The plates were incubated in 37° C. incubator at 5% CO2 for 2 hours.
After the 2 hour incubation, the cell plates were spun in the centrifuge for 5 minutes at 1200 rpm. Using the Felix (CyBio), 8 μl of the supernatant was transferred to 384 well, low volume, white proxy plates. (Perkin Elmer, 6008230). A human ILlbeta hTRF kit was used to analyze the supernatant (CISBIO, 62HIL1BPEG). The kit instructions were followed for preparing the IL1Beta standard curve and then the antibodies from the kit were diluted 1:40 rather than 1:20 as kit instructed. […]

T3 sequence (Q96P20 whole entry): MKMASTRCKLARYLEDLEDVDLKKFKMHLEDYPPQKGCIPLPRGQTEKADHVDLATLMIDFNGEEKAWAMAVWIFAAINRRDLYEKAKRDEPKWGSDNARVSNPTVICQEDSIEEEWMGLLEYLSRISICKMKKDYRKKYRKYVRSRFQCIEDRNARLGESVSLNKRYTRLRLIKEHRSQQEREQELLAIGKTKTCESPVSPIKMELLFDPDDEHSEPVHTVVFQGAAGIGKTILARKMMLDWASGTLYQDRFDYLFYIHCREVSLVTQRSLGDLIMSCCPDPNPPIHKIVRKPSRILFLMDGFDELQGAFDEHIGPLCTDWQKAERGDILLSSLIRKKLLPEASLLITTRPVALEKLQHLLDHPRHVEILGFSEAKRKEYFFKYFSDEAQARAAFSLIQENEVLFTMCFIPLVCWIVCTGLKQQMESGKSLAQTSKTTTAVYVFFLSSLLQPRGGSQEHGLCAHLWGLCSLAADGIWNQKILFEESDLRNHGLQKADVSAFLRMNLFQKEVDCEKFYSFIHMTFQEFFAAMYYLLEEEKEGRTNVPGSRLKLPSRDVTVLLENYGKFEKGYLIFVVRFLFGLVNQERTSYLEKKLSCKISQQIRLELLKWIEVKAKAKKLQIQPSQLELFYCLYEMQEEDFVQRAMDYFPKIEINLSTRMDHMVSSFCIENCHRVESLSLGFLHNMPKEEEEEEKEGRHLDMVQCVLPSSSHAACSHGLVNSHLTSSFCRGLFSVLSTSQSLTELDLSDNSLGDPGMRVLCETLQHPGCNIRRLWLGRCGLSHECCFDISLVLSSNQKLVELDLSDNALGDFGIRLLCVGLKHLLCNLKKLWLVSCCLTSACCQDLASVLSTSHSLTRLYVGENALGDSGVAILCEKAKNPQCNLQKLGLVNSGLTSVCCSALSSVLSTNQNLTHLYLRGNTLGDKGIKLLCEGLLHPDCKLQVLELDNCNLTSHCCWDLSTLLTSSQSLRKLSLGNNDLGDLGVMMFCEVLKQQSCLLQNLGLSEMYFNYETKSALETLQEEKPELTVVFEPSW

| Structure (SMILES) | IC50 [nM] |
| --- | --- |
| Nc1nc2cc(-c3cc[nH]n3)ccc2c2c1nc(CCNC(=O)c1ccc(F)cn1)n2CC(F)F [Example 4] | 340 |
| Nc1nc2cc(-c3cc[nH]n3)ccc2c2c1nc(CCNC(=O)C1CCCCO1)n2CC(F)F (centres unmarked) [Example 17] | 1320 |
| Nc1nc2cc(-c3cc[nH]n3)ccc2c2c1nc(CNC(=O)C1CCCCO1)n2CC(F)F (centres unmarked) [Example 19] | 790 |
| Nc1nc2cc(-c3cc[nH]n3)ccc2c2c1nc(CCNC(=O)c1csc(Cl)n1)n2CC(F)F [Example 11] | 590 |
| Nc1nc2cc(-c3cc[nH]n3)ccc2c2c1nc(CCNC(=O)c1ccccn1)n2C1CC1 [Example 5] | 440 |
| COc1ccc(C(=O)NCCc2nc3c(N)nc4cc(-c5cc[nH]n5)ccc4c3n2C2CC2)nc1 [Example 13] | 1240 |
| Nc1nc2cc(-c3cc[nH]n3)ccc2c2c1nc(CCNC(=O)c1ccccn1)n2C1CCC1 [Example 6] | 410 |
| Nc1nc2cc(-c3cc[nH]n3)ccc2c2c1nc(CNC(=O)C1CCCO1)n2CC(F)F (centres unmarked) [Example 20] | 1880 |
| CC(C)n1c(CCNC(=O)C2CCCO2)nc2c(N)nc3cc(-c4cc[nH]n4)ccc3c21 (centres unmarked) [Example 18] | 1940 |
| Nc1nc2cc(-c3cc[nH]n3)ccc2c2c1nc(CCNC(=O)c1ccc(F)cn1)n2C1CC1 [Example 8] | 270 |

Second part, the compound after the results:

| IC50 [nM] | Structure (SMILES) |
| --- | --- |
| 270 | COc1ccc(C(=O)NCCc2nc3c(N)nc4cc(-c5cc[nH]n5)ccc4c3n2C(C)C)nc1 [Example 12] |
| 70 | CC(C)n1c(CCNC(=O)c2ccccn2)nc2c(N)nc3cc(-c4cc[nH]n4)ccc3c21 [Example 2] |
| 160 | CC(C)n1c(CCNC(=O)c2csc(Cl)n2)nc2c(N)nc3cc(-c4cc[nH]n4)ccc3c21 [Example 10] |
| 220 | CC(C)n1c(CNC(=O)C2CCCO2)nc2c(N)nc3cc(-c4cc[nH]n4)ccc3c21 (centres unmarked) [Example 16] |
| 220 | Nc1nc2cc(-c3cc[nH]n3)ccc2c2c1nc(CCNC(=O)c1ccccn1)n2CC(F)F [Example 3] |
| 270 | CC(C)n1c(CNC(=O)C2CCCCO2)nc2c(N)nc3cc(-c4cc[nH]n4)ccc3c21 (centres unmarked) [Example 15] |
| 120 | CC(C)n1c(CCNC(=O)c2ccc(F)cn2)nc2c(N)nc3cc(-c4cc[nH]n4)ccc3c21 [Example 9] |
| 180 | COc1ccc(C(=O)NCCc2nc3c(N)nc4cc(-c5cc[nH]n5)ccc4c3n2C2CCC2)nc1 [Example 7] |
| 240 | CC(C)n1c(CNC(=O)c2ccccn2)nc2c(N)nc3cc(-c4cc[nH]n4)ccc3c21 [Example 14] |
| 120 | Nc1nc2cc(-c3cc[nH]n3)ccc2c2c1nc(CCNC(=O)c1ccc(F)cn1)n2C1CCC1 [Example 1, N-{2-[4-amino-1-cyclobutyl-7-(1H-pyrazol-5-yl)-1H-imidazo[4,5-c]quinolin-2-yl]ethyl}-5-fluoropyridine-2-carboxamide] |
